{"source": "patent US8987449B2", "about": "“Medicine for treating ischemic brain injury and its sequelae, and preparation method thereof” (Haimin Lei, priority 2011, dated 2015)", "tested_on": "chicken chorioallantoic membrane (CAM)", "assay": "Effect of LQC-T on CAM angiogenesis (CAM method, vessel count)", "assay_type": "in vivo", "conditions": "20 μg/chicken embryo", "method": "Embryonated chicken eggs of Lohmann of German, egg weight 50-60 g (embryo experiment center of Chinese Agriculture University)\nLQC-T (1-6) (prepared by the methods of examples 2-7), wherein the purity was ≧98%, determined by high performance liquid chromatography (HPLC), meeting the requirements of the experiment. The powder was carefully sealed and preserved at 4° C.\nAseptic gelatin sponge, which was made into a wafer having a diameter of 5 mm by a hole-puncher in advance, was used as sample carrier. The prepared LQC-T series compounds were added according to 20 μg/chicken embryo in an aseptic environment. The 0.9% physiological saline was used in a blank group. The samples were air-dried in an aseptic environment.\nA hatching egg after disinfection was put into a 37° C. incubation box with air sac upward until the seventh day of incubation. The egg embryo was disinfected using alcohol at a super clean bench, and then a small hole was drilled at the top of the egg embryo using a dental drill, and the nearby egg shell and shell membrane were removed carefully to form the opening with the size of about 1.2 cm×1.2 cm. After spotting the location for applying the sample, the air sac was broken with injection needle at the interface between air sac and the yolk and then 1-2 drops of aseptic physiological saline was injected so that the air sac membrane was separated from CAM membrane. Then the upper air sac membrane was slightly removed with a nipper to expose the lower CAM membrane.\nThe medicine-containing carrier was softly put by a nipper at the locations of CAM and yolk cyst membrane with fewer vessels, the opening was then sealed with aseptic transparent tape and incubation was continued for another 72 h.\nAfter the incubation, the transparent tape blocking the chicken embryo air sac was removed with a nipper. The liquid of equal-volumetrically mixed methanol/acetone 1-2 ml was added and fixed at room temperature for 10 min. The CAM membrane was carefully removed and put it onto a slide. Then it was observed and a photograph was taken. The effect of the compounds on angiogenesis was evaluated by the count analytic method using the numbers of great vessels, medium vessels and small vessels arranged radially around by the carrier.\nAll the data were statistically analyzed using SPSS11.0 software pack. The difference between the administration group and the blank group was given through one-way variance analysis. P<0.05 had statistical significance."}
{"smiles": "COc1cc(C(=O)OCc2nc(C)c(C)nc2C)ccc1OCc1nc(C)c(C)nc1C", "note": "[LQC-T4, (3,5,6-trimethylpyrazine-2-yl)methyl 3-methoxy-4-((3,5,6-trimethylpyrazine-2-yl)methoxy) benzoate]", "values": [{"measurement": "small vessel angiogenesis of CAM model, Medicine group (X ± S)", "setting": "72 h incubation, number of small vessels, blank group 8.67 ± 1.03", "result": "14.4 ± 2.16"}, {"measurement": "effect on growth of new (small) vessels compared with the blank group", "setting": "result in words", "result": "significant promoting effect"}]}
